Values joined by “and” are separate entries in the source; they are usually repeats but may differ in a detail not shown here. Equal entries are not always repeated. ± gives the uncertainty stated by the source.
c1ccc(Nc2ccccc2)cc1
viscosity (323.15 K, 101 kPa): 5.95 ± 0.35 mPa·s

O=Cc1ccccc1
viscosity (293.15 K, 100 kPa): 1.495 ± 0.036 mPa·s
viscosity (293.15 K, 101.33 kPa): 1.397 ± 0.19 mPa·s
viscosity (298.1 K, 101 kPa): 1.37 ± 0.032 mPa·s
viscosity (298.15 K, 101 kPa): 1.392 ± 0.033 mPa·s
viscosity (298.15 K, 101.33 kPa): 1.445 ± 0.012 mPa·s and 1.321 ± 0.012 mPa·s and 1.385 ± 0.013 mPa·s
viscosity (303.15 K, 101 kPa): 1.26 ± 0.0099 mPa·s
viscosity (303.15 K, 101.33 kPa): 1.278 ± 0.18 mPa·s
viscosity (308.15 K, 101 kPa): 1.215 ± 0.033 mPa·s
viscosity (308.15 K, 101.33 kPa): 1.13 ± 0.014 mPa·s and 1.178 ± 0.011 mPa·s
viscosity (313.15 K, 101.33 kPa): 1.17 ± 0.17 mPa·s
viscosity (318.15 K, 101 kPa): 0.9051 ± 0.091 mPa·s and 1.051 ± 0.028 mPa·s
viscosity (318.15 K, 101.33 kPa): 1.034 ± 0.01 mPa·s
viscosity (323.15 K, 101 kPa): 0.975 ± 0.026 mPa·s
viscosity (323.15 K, 101.33 kPa): 1.072 ± 0.17 mPa·s

CCOC(=O)c1ccccc1C(=O)OCC
viscosity (313.15 K, 101.33 kPa): 6.3 ± 0.063 mPa·s

COC(=O)OCC(F)(F)F
viscosity (298.15 K, 100 kPa): 1 ± 0.022 mPa·s
viscosity (313.15 K, 100 kPa): 0.74 ± 0.016 mPa·s

[Cl-].[Cl-].[Cl-].[Cl-].[Ge+4]
viscosity (293.15 K, 101 kPa): 0.599 ± 0.015 mPa·s
viscosity (298.15 K, 101 kPa): 0.589 ± 0.015 mPa·s
viscosity (303.15 K, 101 kPa): 0.561 ± 0.014 mPa·s
viscosity (313.15 K, 101 kPa): 0.516 ± 0.013 mPa·s

c1ccsc1
viscosity (293.15 K, 101 kPa): 0.653 ± 0.065 mPa·s
viscosity (298.15 K, 100 kPa): 0.655 ± 0.094 mPa·s
viscosity (298.15 K, 101 kPa): 0.62 ± 0.01 mPa·s and 0.615 ± 0.062 mPa·s
viscosity (303.15 K, 101 kPa): 0.58 ± 0.058 mPa·s
viscosity (308.15 K, 100 kPa): 0.585 ± 0.091 mPa·s
viscosity (308.15 K, 101 kPa): 0.54 ± 0.01 mPa·s and 0.545 ± 0.055 mPa·s
viscosity (313.15 K, 101 kPa): 0.518 ± 0.052 mPa·s
viscosity (318.15 K, 100 kPa): 0.525 ± 0.088 mPa·s
viscosity (318.15 K, 101 kPa): 0.48 ± 0.01 mPa·s and 0.491 ± 0.049 mPa·s
viscosity (323.15 K, 101 kPa): 0.464 ± 0.047 mPa·s

Cc1ccc(C)cc1
viscosity (293.15 K, 101 kPa): 0.5756 ± 0.0088 mPa·s and 0.6402 ± 0.017 mPa·s and 0.6388 ± 0.0058 mPa·s
viscosity (293.15 K, 101.2 kPa): 0.6517 ± 0.029 mPa·s
viscosity (293.15 K, 101.3 kPa): 0.6332 ± 0.017 mPa·s and 0.6589 ± 0.04 mPa·s
viscosity (298 K, 101.3 kPa): 0.615 ± 0.008 mPa·s
viscosity (298.15 K, 100 kPa): 0.6118 ± 0.073 mPa·s
viscosity (298.15 K, 101.2 kPa): 0.6083 ± 0.027 mPa·s
viscosity (303.15 K, 101.2 kPa): 0.5753 ± 0.026 mPa·s
viscosity (303.15 K, 101.3 kPa): 0.5702 ± 0.0041 mPa·s
viscosity (303.15 K, 101.32 kPa): 0.564 ± 0.015 mPa·s
viscosity (303.15 K, 101.33 kPa): 0.5694 ± 0.015 mPa·s and 0.519 ± 0.008 mPa·s and 0.57 ± 0.004 mPa·s
viscosity (307.35 K, 101.33 kPa): 0.539 ± 0.0095 mPa·s
viscosity (308.15 K, 100 kPa): 0.5508 ± 0.066 mPa·s
viscosity (308.15 K, 101.2 kPa): 0.5364 ± 0.024 mPa·s
viscosity (308.15 K, 101.3 kPa): 0.5381 ± 0.0039 mPa·s
viscosity (313.15 K, 101.2 kPa): 0.5094 ± 0.023 mPa·s
viscosity (313.15 K, 101.3 kPa): 0.5309 ± 0.014 mPa·s and 0.5117 ± 0.031 mPa·s and 0.5086 ± 0.0037 mPa·s
viscosity (313.15 K, 101.33 kPa): 0.5064 ± 0.014 mPa·s
viscosity (318 K, 101.3 kPa): 0.4919 ± 0.019 mPa·s
viscosity (318.15 K, 101 kPa): 0.4925 ± 0.014 mPa·s and 0.462 ± 0.01 mPa·s and 0.483 ± 0.013 mPa·s
viscosity (318.15 K, 101.2 kPa): 0.5049 ± 0.023 mPa·s
viscosity (318.15 K, 101.3 kPa): 0.4817 ± 0.0036 mPa·s
viscosity (323.15 K, 101.3 kPa): 0.4738 ± 0.013 mPa·s and 0.4571 ± 0.028 mPa·s

CC(F)F
viscosity (293.35 K, 101 kPa): 0.172 ± 0.0047 mPa·s
viscosity (294.75 K, 101 kPa): 0.177 ± 0.0049 mPa·s
viscosity (313.35 K, 101 kPa): 0.1402 ± 0.0038 mPa·s
viscosity (314.25 K, 101 kPa): 0.1409 ± 0.0038 mPa·s

C=C(C)C(=O)OCCCCCCC
viscosity (303 K, 101 kPa): 1.516 ± 0.029 mPa·s
viscosity (313 K, 101 kPa): 1.275 ± 0.021 mPa·s
viscosity (323 K, 101 kPa): 1.105 ± 0.015 mPa·s

O=C(O)C(Cl)Cl
viscosity (308.15 K, 101 kPa): 4.779 ± 0.2 mPa·s
viscosity (323.15 K, 101 kPa): 3.243 ± 0.14 mPa·s

CC(C)CCCC(C)CCCC(C)CCCCC(C)CCCC(C)CCCC(C)C (stereo not drawn)
viscosity (293.15 K, 100 kPa): 35.3 ± 2.2 mPa·s
viscosity (313.15 K, 100 kPa): 15.4 ± 0.9 mPa·s

Fc1ccccc1
viscosity (303.15 K, 101 kPa): 0.514 ± 0.011 mPa·s and 0.523 ± 0.019 mPa·s and 0.523 ± 0.011 mPa·s
viscosity (308.15 K, 101 kPa): 0.495 ± 0.018 mPa·s and 0.495 ± 0.01 mPa·s
viscosity (313.15 K, 101 kPa): 0.46 ± 0.011 mPa·s and 0.467 ± 0.017 mPa·s and 0.467 ± 0.01 mPa·s

From the CheMixHub viscosity set
